Experimental data published in PubChem BioAssay (NCI).
Values joined by “and” are separate entries in the source; they are usually repeats but may differ in a detail not shown here. Equal values may be shown once.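 All cell lines were grown in 96-well plates and treated with compound for 48 hours. GI50: concentration for 50% inhibition of growth. The concentration for full growth arrest is given as TGI.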

How the values were obtained:
Experiment in all cases: NCI anticancer screen, dose series, 48 h
786-0 renal = test system: 786-0 renal
A498 renal = test system: A498 renal
CAKI-1 renal = test system: CAKI-1 renal
IGROV1 ovarian = test system: IGROV1 ovarian
M14 melanoma = test system: M14 melanoma
MDA-MB-231 breast = test system: MDA-MB-231 breast
NCI-H522 lung = test system: NCI-H522 lung
OVCAR-3 ovarian = test system: OVCAR-3 ovarian
SNB-19 CNS = test system: SNB-19 CNS
SR leukemia = test system: SR leukemia

## COc1cc2c(cc1NC(=O)C(Cl)Cl)-c1ccc(NC(=O)C(Cl)Cl)cc1C2
786-0 renal
  GI50: 1.27 µM
  TGI: 3.92 µM
A498 renal
  GI50: 0.551 µM
  TGI: 1.89 µM
CAKI-1 renal
  GI50: 1.01 µM
  TGI: 4.04 µM
IGROV1 ovarian
  GI50: 1.16 µM
  TGI: 5.58 µM
M14 melanoma
  GI50: 3.14 µM
  TGI: 16.5 µM
MDA-MB-231 breast
  GI50: 0.499 µM
  TGI: 2 µM
NCI-H522 lung
  GI50: 5.83 µM
  TGI: 19.7 µM
OVCAR-3 ovarian
  GI50: 0.569 µM
  TGI: 1.25 µM
SNB-19 CNS
  GI50: 0.461 µM
  TGI: 2.06 µM
SR leukemia
  GI50: 5.27 µM
  TGI: 24.2 µM

## O=S(=O)(NCCCNc1cc(-c2cn(-c3ccccc3)nc2-c2cccc(O)c2)ccn1)c1ccc(F)cc1
786-0 renal
  GI50: 2.35 µM
  TGI: 6.23 µM
A498 renal
  GI50: 2.49 µM
  TGI: 9.81 µM
CAKI-1 renal
  GI50: 4.56 µM
  TGI: 44.6 µM
IGROV1 ovarian
  GI50: 4.29 µM
  TGI: 33.5 µM
M14 melanoma
  GI50: 2.85 µM
  TGI: 8.75 µM
MDA-MB-231 breast
  GI50: 2.48 µM
  TGI: 7.19 µM
NCI-H522 lung
  GI50: 2.29 µM
  TGI: 7.44 µM
OVCAR-3 ovarian
  GI50: 3.28 µM
  TGI: 14.9 µM
SNB-19 CNS
  GI50: 4.67 µM
  TGI: 52.3 µM
SR leukemia
  GI50: 2.08 µM
  TGI: 6.09 µM

## COc1cc(C(=O)/C=C/c2c(C(F)(F)F)nc3ccccn23)cc(OC)c1OC
786-0 renal
  GI50: 1.72 µM
  TGI: 3.42 µM
A498 renal
  GI50: 2.4 µM
  TGI: 5.77 µM
CAKI-1 renal
  GI50: 1.82 µM
  TGI: 4.44 µM
IGROV1 ovarian
  GI50: 2.23 µM
  TGI: 6.02 µM
M14 melanoma
  GI50: 1.82 µM
  TGI: 4.06 µM
MDA-MB-231 breast
  GI50: 4.59 µM
  TGI: 19.3 µM
NCI-H522 lung
  GI50: 1.77 µM
  TGI: 3.91 µM
OVCAR-3 ovarian
  GI50: 1.83 µM
  TGI: 3.61 µM
SNB-19 CNS
  GI50: 1.93 µM
  TGI: 3.85 µM
SR leukemia
  GI50: 1.98 µM
  TGI: > 100 µM

## O=S(=O)(O)c1ccc2cc3nn(-c4ccc(/C=C/c5ccc(-n6nc7cc8ccc(S(=O)(=O)O)cc8cc7n6)cc5S(=O)(=O)O)c(S(=O)(=O)O)c4)nc3cc2c1
786-0 renal
  GI50: > 100 µM
  TGI: > 100 µM
A498 renal
  GI50: > 100 µM
  TGI: > 100 µM
CAKI-1 renal
  GI50: > 100 µM
  TGI: > 100 µM
IGROV1 ovarian
  GI50: 27 µM
  TGI: > 100 µM
M14 melanoma
  GI50: 44.5 µM
  TGI: > 100 µM
MDA-MB-231 breast
  GI50: 37 µM
  TGI: > 100 µM
NCI-H522 lung
  GI50: 78.4 µM
  TGI: > 100 µM
OVCAR-3 ovarian
  GI50: > 100 µM
  TGI: > 100 µM
SNB-19 CNS
  GI50: > 100 µM
  TGI: > 100 µM
SR leukemia
  GI50: 34.4 µM
  TGI: > 100 µM

## C[C@@H](NC(=O)c1ccc(F)cc1)c1ccc2c(c1)CCN2C(=O)C1CCOCC1
786-0 renal
  GI50: > 100 µM
  TGI: > 100 µM
A498 renal
  GI50: 17.1 µM
  TGI: 88.5 µM
CAKI-1 renal
  GI50: > 100 µM
  TGI: > 100 µM
IGROV1 ovarian
  GI50: > 100 µM
  TGI: > 100 µM
M14 melanoma
  GI50: > 100 µM
  TGI: > 100 µM
MDA-MB-231 breast
  GI50: > 100 µM
  TGI: > 100 µM
NCI-H522 lung
  GI50: > 100 µM
  TGI: > 100 µM
OVCAR-3 ovarian
  GI50: > 100 µM
  TGI: > 100 µM
SR leukemia
  GI50: > 100 µM
  TGI: > 100 µM

## COc1ccc2c(c1)C(=O)c1c-2c(=O)n(CCCN(C)C)c2cc(OC)c(OC)cc12
786-0 renal
  GI50: 6.93 µM
  TGI: 20.5 µM
A498 renal
  GI50: 15 µM
  TGI: > 100 µM
CAKI-1 renal
  GI50: 1.48 µM
  TGI: > 100 µM
IGROV1 ovarian
  GI50: 10.1 µM
  TGI: 21.8 µM
M14 melanoma
  GI50: 6.65 µM
  TGI: 21.7 µM
MDA-MB-231 breast
  GI50: 14.4 µM
  TGI: 28.5 µM
NCI-H522 lung
  GI50: 4.69 µM
  TGI: 21.6 µM
OVCAR-3 ovarian
  GI50: 13.7 µM
  TGI: 26.9 µM
SNB-19 CNS
  GI50: 3.3 µM
  TGI: 20.6 µM
SR leukemia
  GI50: 0.128 µM
  TGI: 7.63 µM

## CC(=O)N(O)c1ccc(/C=C/c2ccccc2)cc1
786-0 renal
  GI50: 0.768 µM
  TGI: 3.46 µM
A498 renal
  GI50: 0.221 µM
  TGI: 0.715 µM
CAKI-1 renal
  GI50: 0.543 µM
  TGI: 3.22 µM
IGROV1 ovarian
  GI50: 1.14 µM
  TGI: 7.41 µM
M14 melanoma
  GI50: 3.35 µM
  TGI: > 100 µM
MDA-MB-231 breast
  GI50: 3.41 µM
  TGI: 21.8 µM
NCI-H522 lung
  GI50: 3.58 µM
  TGI: > 41.1 µM
OVCAR-3 ovarian
  GI50: 2.55 µM
  TGI: 29.2 µM
SNB-19 CNS
  GI50: 1.88 µM
  TGI: > 100 µM
SR leukemia
  GI50: 0.244 µM
  TGI: > 100 µM

## Cc1ccc(S(=O)(=O)NC(=O)OC23COCN2COC3)cc1
786-0 renal
  TGI: > 100 µM
A498 renal
  TGI: > 100 µM
CAKI-1 renal
  TGI: > 100 µM
IGROV1 ovarian
  TGI: > 100 µM
M14 melanoma
  TGI: > 100 µM
MDA-MB-231 breast
  TGI: > 100 µM
NCI-H522 lung
  TGI: > 100 µM
OVCAR-3 ovarian
  TGI: > 100 µM
SNB-19 CNS
  TGI: > 100 µM
SR leukemia
  TGI: > 100 µM

## O=C(c1cc(Cc2n[nH]c(=O)c3ccccc23)ccc1F)N1CCN(C(=O)C2CC2)CC1
786-0 renal
  GI50: > 100 µM
  TGI: > 100 µM
A498 renal
  GI50: 19 µM and > 55.7 µM
  TGI: > 100 µM
CAKI-1 renal
  GI50: 16.5 µM and 54.5 µM
  TGI: 48.1 µM and > 100 µM
IGROV1 ovarian
  GI50: 56.8 µM and 68.3 µM
  TGI: > 100 µM
M14 melanoma
  GI50: 73.3 µM and > 86 µM
  TGI: > 100 µM
MDA-MB-231 breast
  GI50: > 100 µM
  TGI: > 100 µM
NCI-H522 lung
  GI50: > 100 µM
  TGI: > 100 µM
OVCAR-3 ovarian
  GI50: 32.8 µM and > 77.2 µM
  TGI: > 100 µM
SNB-19 CNS
  GI50: 80.5 µM and > 85.1 µM
  TGI: > 100 µM
SR leukemia
  GI50: 7.78 µM and 14.1 µM
  TGI: > 100 µM

## CC1CCN(CCOc2ccc(CNc3ccc4nc(CCC5CCCCC5)[nH]c4c3)cc2)CC1
786-0 renal
  GI50: 1.43 µM
  TGI: 2.79 µM
A498 renal
  GI50: 1.77 µM
  TGI: 3.7 µM
CAKI-1 renal
  GI50: 1.87 µM
  TGI: 3.34 µM
IGROV1 ovarian
  GI50: 1.59 µM
  TGI: 3.27 µM
M14 melanoma
  GI50: 1.56 µM
  TGI: 3.01 µM
MDA-MB-231 breast
  GI50: 1.53 µM
  TGI: 2.94 µM
NCI-H522 lung
  GI50: 1.82 µM
  TGI: 3.58 µM
OVCAR-3 ovarian
  GI50: 1.61 µM
  TGI: 3.12 µM
SNB-19 CNS
  GI50: 2.03 µM
  TGI: 4.2 µM
SR leukemia
  GI50: 0.485 µM
  TGI: 2.66 µM

## O=c1[nH]c(=S)[nH]c(-c2ccccc2)c1Cc1c(O)ccc2ccccc12
786-0 renal
  TGI: > 100 µM
A498 renal
  TGI: 44.7 µM
CAKI-1 renal
  TGI: > 100 µM
IGROV1 ovarian
  TGI: > 100 µM
M14 melanoma
  TGI: 78.5 µM
MDA-MB-231 breast
  TGI: > 100 µM
NCI-H522 lung
  TGI: > 100 µM
OVCAR-3 ovarian
  TGI: > 100 µM
SNB-19 CNS
  TGI: > 100 µM
SR leukemia
  TGI: > 100 µM

## CC1=NNC(=S)NCCCN2CCN(CCCNC(=S)NN=C(C)C=NNC(=S)NCCCN3CCN(CCCNC(=S)NN=C1)CC3)CC2
786-0 renal
  TGI: > 100 µM
A498 renal
  TGI: > 100 µM
CAKI-1 renal
  TGI: > 100 µM
IGROV1 ovarian
  TGI: > 100 µM
M14 melanoma
  TGI: > 100 µM
MDA-MB-231 breast
  TGI: > 100 µM
NCI-H522 lung
  TGI: > 100 µM
OVCAR-3 ovarian
  TGI: > 100 µM
SNB-19 CNS
  TGI: > 100 µM
SR leukemia
  TGI: > 100 µM

## Cc1ccc(-n2c(-c3cc4c([nH]c5ccccc54)c(-c4cccc(O)c4)n3)n[nH]c2=S)cc1
786-0 renal
  GI50: 2.6 µM
  TGI: 12.8 µM
A498 renal
  GI50: 0.263 µM
  TGI: 0.738 µM
CAKI-1 renal
  GI50: 1.73 µM
  TGI: 4.9 µM
IGROV1 ovarian
  GI50: 0.704 µM
  TGI: 4.74 µM
M14 melanoma
  GI50: 1.1 µM
  TGI: 3.71 µM
MDA-MB-231 breast
  GI50: 1.35 µM
  TGI: 6.35 µM
NCI-H522 lung
  GI50: 0.861 µM
  TGI: 5.27 µM
OVCAR-3 ovarian
  GI50: 0.399 µM
  TGI: 1.86 µM
SNB-19 CNS
  GI50: 0.403 µM
  TGI: 3.7 µM
SR leukemia
  GI50: 0.443 µM
  TGI: 2.07 µM
